IC50 data for seven molecules are collected here from BindingDB's records for doi:10.1021/jm000506s (The R. W. Johnson Pharmaceutical Research Institute, 2001).

Molecules are shown by their SMILES.

A short description of this experiment: In vitro antagonist activity against Thrombin induced gel-filtered platelet (GFP) aggregation at 0.15 nM.
Molecule `COc1ccc(C[C@H](NC(=O)Nc2ccc3c(CNC4CCCC4)cn(Cc4ccc(F)cc4)c3c2)C(=O)N[C@@H](CCCNC(=N)N)C(=O)NCc2ccccc2)cc1` [2-[2-{3-[3-Cyclopentylaminomethyl-1-(4-fluoro-benzyl)-1H-indol-6-yl]-ureido}-3-(4-methoxy-phenyl)-propionylamino]-5-guanidino-pentanoic acid benzylamide] yielded an IC50 of 17.8 µM.

The molecule `COc1ccc(C[C@H](NC(=O)Nc2ccc3c(CN4CCCC4)cn(Cc4c(Cl)cccc4Cl)c3c2)C(=O)N[C@@H](CCCN=C(N)N)C(=O)NCc2ccccc2)cc1` [RWJ-54003] registered an IC50 of 0.9 µM.

For `COc1ccc(C[C@H](NC(=O)Nc2ccc3c(CN4CCCC4)cn(Cc4ccc(OC(F)(F)F)cc4)c3c2)C(=O)N[C@@H](CCCNC(=N)N)C(=O)NCc2ccccc2)cc1` [5-Guanidino-2-(3-(4-methoxy-phenyl)-2-{3-[3-pyrrolidin-1-ylmethyl-1-(4-trifluoromethoxy-benzyl)-1H-indol-6-yl]-ureido}-propionylamino)-pentanoic acid benzylamide], half-maximal inhibition (IC50) required 18.2 µM.

`N=C(N)NCCC[C@H](NC(=O)[C@H](Cc1ccc(F)c(F)c1)NC(=O)Nc1ccc2c(CN3CCCC3)cn(Cc3c(Cl)cccc3Cl)c2c1)C(=O)NCc1ccccc1` [(S)-2-[(S)-2-{3-[1-(2,6-Dichloro-benzyl)-3-pyrrolidin-1-ylmethyl-1H-indol-6-yl]-ureido}-3-(3,4-difluoro-phenyl)-propionylamino]-5-guanidino-pentanoic acid benzylamide] gave an IC50 of 0.57 µM.

Turning to `NCC[C@H](NC(=O)[C@H](Cc1ccc(F)c(F)c1)NC(=O)Nc1ccc2c(CN3CCCC3)nn(Cc3c(Cl)cccc3Cl)c2c1)C(=O)NCc1ccccc1` [4-Amino-N-benzyl-2-[2-{3-[1-(2,6-dichloro-benzyl)-3-pyrrolidin-1-ylmethyl-1H-indazol-6-yl]-ureido}-3-(3,4-difluoro-phenyl)-propionylamino]-butyramide], inhibition was half-maximal at 0.37 µM (IC50).

`COc1ccc(C[C@H](NC(=O)Nc2ccc3c(CN4CCCC4)cn(Cc4ccc(F)cc4)c3c2)C(=O)N[C@@H](CCCNC(=N)N)C(=O)NCc2ccccc2)cc1` [2-[2-{3-[1-(4-Fluoro-benzyl)-3-pyrrolidin-1-ylmethyl-1H-indol-6-yl]-ureido}-3-(4-methoxy-phenyl)-propionylamino]-5-guanidino-pentanoic acid benzylamide] displayed an IC50 of 2.32 µM.

In the case of `N=C(N)NCCC[C@H](NC(=O)[C@H](Cc1ccc(F)c(F)c1)NC(=O)Nc1ccc2c(CN3CCCC3)cn(Cc3c(Cl)cccc3Cl)c2c1)C(=O)NCc1ccncc1` [2-[2-{3-[1-(2,6-Dichloro-benzyl)-3-pyrrolidin-1-ylmethyl-1H-indol-6-yl]-ureido}-3-(3,4-difluoro-phenyl)-propionylamino]-5-guanidino-pentanoic acid (pyridin-4-ylmethyl)-amide], the IC50 is 1.06 µM.
